Data taken from article PMC7822874, “Chemoprotective antimalarials identified through quantitative high-throughput screening of Plasmodium blood and liver stage parasites” (Scientific Reports, 2021).
Where two headings read alike, the source gives them in different places.

How the values were obtained:
[1] = in vitro; conditions: human, HepG2-A16-CD81EGFP cells, uninfected
[2] = target: Firefly luciferase (Fluc, EC 1.13.12.7) (Photinus pyralis, UniProt P08659); assay: biochemical; parameters: single determination (the paper says generally: 'qHTS assays were performed in a single replicate with a 7- to 11-point dose response format'; it is not stated for this counterscreen itself)
Firefly luciferase (Fluc, EC 1.13.12.7), sequence (P08659 whole entry): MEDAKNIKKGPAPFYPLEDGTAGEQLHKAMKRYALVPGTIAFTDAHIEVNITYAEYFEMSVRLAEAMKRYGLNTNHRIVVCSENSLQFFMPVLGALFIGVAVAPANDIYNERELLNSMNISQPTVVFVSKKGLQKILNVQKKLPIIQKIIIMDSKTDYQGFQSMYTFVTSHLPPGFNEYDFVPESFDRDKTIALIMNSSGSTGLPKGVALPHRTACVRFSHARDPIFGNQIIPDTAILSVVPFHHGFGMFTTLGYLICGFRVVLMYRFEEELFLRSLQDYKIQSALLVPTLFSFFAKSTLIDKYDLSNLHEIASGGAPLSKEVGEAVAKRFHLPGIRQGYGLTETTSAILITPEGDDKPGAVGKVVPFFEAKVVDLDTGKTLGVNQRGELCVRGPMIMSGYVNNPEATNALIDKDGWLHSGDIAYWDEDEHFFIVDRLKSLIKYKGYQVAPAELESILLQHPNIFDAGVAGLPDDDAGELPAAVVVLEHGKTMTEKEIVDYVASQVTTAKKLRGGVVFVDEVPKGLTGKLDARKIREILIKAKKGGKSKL

[3] = in vitro; conditions: human, hepg2 cells
[4] = test system: Plasmodium falciparum Dd2 asexual blood stage parasites; assay: microbe, parasite or virus in culture; parameters: species or system Plasmodium falciparum Dd2 in human erythrocytes; single determination (one 11-point concentration-response curve); conditions: Plasmodium falciparum, DD2, Erythrocyte, 72 h; read-out: AC50
[5] = test system: HepG2; conditions: human, hepg2 cells, 48 h
[6] = in vitro; conditions: human, HepG2 cells; n = 1
[7] = test system: P. falciparum Dd2 (clone B2) asexual blood stage parasites; assay: P. falciparum Dd2 asexual blood stage SYBR Green-I 72 h proliferation assay (qHTS); assay type: cell-based, Plasmodium falciparum; conditions: Plasmodium falciparum, DD2, 72 h, SYBR Green 72 h
[8] = test system: P. falciparum Dd2 Cytb A122D; assay: SYBR Green ABS proliferation assay, NCGC00473217 selected clone F12; assay type: cell-based, Plasmodium falciparum; conditions: Plasmodium falciparum, DD2, NCGC00473217 selected clone F12; read-out: AC50 [μM], Cytb A122D (converted)
How it was run: (§1)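 Drug-selected P. falciparum Dd2 clones carrying Cytb mutations, obtained by limiting-dilution cloning, grown in RBCs at 37 °C under 5% CO2/5% O2/90% N2. Growth read by SYBR Green-I fluorescence at 72 h and normalized to controls.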

[9] = test system: P. falciparum Dd2 Cytb V259L; assay: SYBR Green ABS proliferation assay, NCGC00473217 selected clone F06; assay type: cell-based, Plasmodium falciparum; conditions: Plasmodium falciparum, DD2, NCGC00473217 selected clone F06; read-out: AC50 [μM], Cytb V259L (converted)
How it was run: as §1

[10] = test system: P. falciparum Dd2 Cytb G131S; assay: SYBR Green ABS proliferation assay, NCGC00374598 selected clone C11; assay type: cell-based, Plasmodium falciparum; conditions: Plasmodium falciparum
How it was run: as §1

[11] = test system: P. falciparum Dd2 Cytb F123L; assay: SYBR Green ABS proliferation assay, NCGC00473217 selected clone G08; assay type: cell-based, Plasmodium falciparum; conditions: Plasmodium falciparum, DD2, NCGC00473217 selected clone G08; highest concentration 29 µM; read-out: AC50 [μM], Cytb F123L (converted)
How it was run: as §1

[12] = Aqueous solubility; assay type: physicochemical; conditions: aqueous media
Method: (§2) Pharmacokinetic modeling experiments, parallel artificial membrane permeability assay (PAMPA), solubility, and rat liver microsome stability assessment were performed on all synthetic compounds, as previously described[73]–[75].

[13] = Rat liver microsomal stability (RLMS); conditions: rat, rat liver microsomes
Method: as §2

[14] = test system: HepG2-A16-CD81EGFP cells; conditions: average of 2 wells
[15] = test system: P. berghei-ANKA-GFP-LucCON liver stage parasites in HepG2-A16-CD81EGFP cells; assay: P. berghei liver stage Pb-Luc assay, Method 1 (UCSD, 1536-well); assay type: cell-based, Plasmodium berghei; conditions: Plasmodium berghei, 48 h, P. berghei liver stage, average of 2 wells on a 1536 well plate; for activity at 1 µM: 1 µM compound treatment (10 mM stocks); for activity at 3 µM: 3 µM compound treatment (10 mM stocks)
[16] = test system: luciferase-expressing P. berghei liver stage parasites in HepG2 cells; assay: Inhibition of liver-stage development assay (ILSDA), Method 2 (WRAIR, 96-well); assay type: cell-based, Plasmodium berghei; conditions: for AC50: Plasmodium berghei, HepG2, Method 2
[17] = approximate value in μM, read-out: AC50 [μM], Dd2-B2 (parental line) (converted)
[18] = DD2, NCGC00374598 selected clone C11, read-out: AC50 [μM], Cytb G131S (converted)

N=c1n(N)c2ccccc2n1CC(=O)c1ccc(Br)cc1 [MLS001183984-01]
viability at 66 h [1]: 103% | AC50 [2]: 12.1 µM

Cc1cccnc1Nc1nc(-c2ccccn2)cs1 [MLS000528306-01]
CC50 at 48 h [3]: 1.09 µM | viability at 48 h, 1 µM [1]: 57% | viability at 48 h, 3 µM [1]: 30% | AC50 [2]: 19.2 µM | AC50 [4]: 473 nM | Log AC50 (M) [5]: -5.9643 M

O=C1c2cnc(-c3cc4ccccc4o3)nc2OCCN1c1ccccc1 [NCGC00413607-01]
CC50 at 48 h [6]: 8.86 µM | AC50 [2]: 0.622 µM

c1ccc2sc(Sc3ncnc4sccc34)nc2c1 [MLS000334432-01]
AC50 [2]: 8.57 µM | AC50 [4]: 944 nM

CN1C(CC2CCCCC2)=NS(=O)(=O)c2cc(NC(=O)c3ccc(F)cc3)ccc21 [NCGC00651716]
AC50 [7, 17]: > 29 µM | AC50 [8]: > 29 µM | AC50 [9]: > 29 µM | AC50 [10, 18]: > 29 µM | AC50 [11]: > 29 µM | solubility [12]: < 1 µg/mL | half-life [13]: 6.6 min

Cc1nn(-c2ccccc2)c(C)c1/C=N/Nc1nc2ccccc2[nH]1 [MLS000332160-01]
HepG2 1uM growth rep1 ([14]; HepG2, 1 µM compound treatment (10 mM stocks), replicate 1, normalized): 93% | HepG2 1uM growth rep2 ([14]; HepG2, 1 µM compound treatment (10 mM stocks), replicate 2, normalized): 90% | HepG2 3uM growth rep1 ([14]; HepG2, 3 µM compound treatment (10 mM stocks), replicate 1, normalized): 89% | HepG2 3uM growth rep2 ([14]; HepG2, 3 µM compound treatment (10 mM stocks), replicate 2, normalized): 86% | AC50 [2]: 12.1 µM | AC50 [4]: 1500 nM | activity at 1 µM ([15]; replicate 1, normalized, read-out: PbLuc 1uM growth rep1): 86% | activity at 1 µM ([15]; replicate 2, normalized, read-out: PbLuc 1uM growth rep2): 81% | activity at 3 µM ([15]; replicate 1, normalized, read-out: PbLuc 3uM growth rep1): 33% | activity at 3 µM ([15]; replicate 2, normalized, read-out: PbLuc 3uM growth rep2): 53%

Cn1c(/N=N/c2ccccc2)nc2ccccc21 [MLS000700530-01]
CC50 at 48 h [6]: 12.2 µM | viability at 48 h, 1 µM [1]: 91% | viability at 48 h, 3 µM [1]: 70% | AC50 [2]: 6.81 µM | AC50 [4]: 841 nM

NC(=NOC(=O)c1cccc(F)c1)c1ccccn1 [MLS001075504-01]
CC50 at 48 h [3]: 15.3 µM | AC50 [2]: 10.8 µM | Log AC50 (M) [5]: -4.8143 M

CCc1ccc(C2=CC(c3cccc(C)c3)n3c(nc4ccccc43)N2)cc1 (centres unmarked) [NCGC00140745-01]
AC50 [2]: 4.82 µM | AC50 [4]: 15000 nM

Cc1ccc(-c2cc(O)c3cc(C)ccc3n2)cc1 [MLS000517822-01]
AC50 [2]: 12.1 µM | AC50 [4]: 10600 nM

CCCN1C(CC(C)C)=NS(=O)(=O)c2cc(NC(=O)c3ccc(Cl)cc3)ccc21 [NCGC00531775]
AC50 ([7]; WT Dd2-B2, read-out: AC50 Log[M] ± SD, Dd2-B2 (parental line) (converted)): 1.26 µM | AC50 [7, 17]: 1.26 µM | AC50 [8]: > 29 µM | AC50 [9]: > 29 µM | AC50 [10, 18]: 0.2 µM | AC50 ([10]; DD2, NCGC00374598 selected clone, read-out: AC50 Log[M] ± SD, Cytb G131S (converted)): 0.2 µM | AC50 [11]: > 29 µM | solubility [12]: < 1 µg/mL | half-life [13]: 4.1 min

CCc1ccc2oc(-c3cccc(NC(=O)c4ccc(-c5cccc([N+](=O)[O-])c5)o4)c3)nc2c1 [NCGC00102150-01]
AC50 [2]: 15.2 µM

CCN(CC)CCN1C(=O)c2ccccc2NC1c1ccc(N(C)C)cc1 (centres unmarked) [MLS000554078-01]
AC50 [2]: 1.92 µM | AC50 [4]: 4220 nM

Cc1ccc(-c2nc(C)c(C(=O)O)s2)cc1 [MLS000735996-01]
AC50 [2]: 13.6 µM

Cc1ccc2[nH]c(-c3sc4nc(C)ccc4c3N)nc2c1 [MLS000547128-01]
AC50 [2]: 12.1 µM

NC(=NOC(=O)/C=C/c1ccc(Br)cc1)c1ccccn1 [MLS000680558-01]
AC50 [2]: 9.62 µM

COc1ccc(NC(=O)c2cccc3c2CCN3C(=O)Nc2ccc(F)cc2)c(C)c1 [NCGC00430188-01]
AC50 [2]: 7.64 µM

CCOC(=O)Cc1csc(NC(=S)NC(=O)c2ccc(C)cc2)n1 [MLS000574610-01]
AC50 [2]: 9.62 µM

Nc1nc(Nc2ccccc2)nc2ccccc12 [MLS000026767-01]
AC50 [2]: 13.6 µM

Cc1cc(N2CCN(C)CC2)nc2ccc(NC(=O)Nc3ccccc3Br)cc12 [NCGC00126483-01]
CC50 at 48 h [3]: 43.2 µM | AC50 [2]: 17.1 µM | Log AC50 (M) [5]: -4.3643 M

CCCc1ccc(C(=O)NC(=O)c2ccccc2O)cc1 [MLS000850457-01]
viability at 48 h, 1 µM [1]: 101% | viability at 48 h, 3 µM [1]: 94% | AC50 [2]: 5.41 µM | Max Resp (signal direction of the dose response) ([16]; Method 2, Decrease = decreasing P. berghei viability with dose, Increase = increasing signal, Inactive = no dose response): Decrease | AC50 ([16]; Hill fit, 50% of maximum activity response, read-out: AC50): 282 nM | AC50 ([16]; log10 of molar AC50 from Hill fit, read-out: Log AC50 (converted)): 282 nM | AC50 [4]: 1060 nM

Nc1ncnc2c1ncn2[C@@H]1O[C@H](CN[S+](=O)([O-])NC(=O)c2cccc(-c3noc(-c4ccccc4F)n3)c2)[C@@H](O)[C@H]1O [NCGC00183809-01]
CC50 at 48 h [6]: 1.72 µM | AC50 [2]: 0.0136 µM

Cc1ccc(C(=O)Nc2sc3c(c2C(=O)O)CCCCC3)o1 [MLS000060651-01]
AC50 [2]: 10.8 µM

O=C(NCCC1=CCCCC1)C1CCN(C(=O)c2ncn3c2COC(c2ccccc2)C3)CC1 (centres unmarked) [NCGC00449771-01]
AC50 [2]: 21.5 µM

O=C1c2cnc(-c3cc4ccccc4o3)nc2OCCN1Cc1ccccc1 [NCGC00413600-01]
AC50 [2]: 11.1 µM

Cc1ccoc1C(=O)Nc1ccc(CC(=O)O)cc1 [MLS000122814-01]
AC50 [2]: 12.1 µM

COc1cc(SC)ccc1C(=O)Nc1nc2ccccc2[nH]1 [MLS001172173-01]
CC50 at 48 h [6]: 19.3 µM | AC50 [2]: 0.0171 µM

O=C(O)COc1ccc(-c2nccc(-c3cccs3)n2)cc1 [MLS000331320-01]
AC50 [2]: 6.81 µM

Cc1ccc(C)c(/N=N/c2nc3ccccc3n2C)c1 [MLS000577452-01]
viability at 48 h, 1 µM [1]: 95% | viability at 48 h, 3 µM [1]: 88% | AC50 [2]: 12.1 µM | AC50 [4]: 299 nM

N#CC(=C1CCCC1)c1nc(-c2ccccc2O)cs1 [MLS000034824-01]
AC50 [2]: 19.2 µM | AC50 [4]: 9440 nM

Cc1ccc(C(=O)NCCn2c(C)cc3ccccc32)cc1C [NCGC00107199-01]
AC50 [2]: 4.3 µM

Cc1cn2c(=O)cc(COC(=O)c3cccc(NC(=O)COc4ccccc4Cl)c3)nc2s1 [NCGC00130619-01]
AC50 [2]: 0.0341 µM
